Data from patent US9597407B2, “Targeted antimicrobial moieties” (C3 Jian, Inc., priority 2009, dated 2017).
“Also recorded” adds a separate entry of the source.

B1: PF-748 (peptide)
chain 1: FQGFFDVAVNKWWEEHNKAKLWKNVKGKFLEGEGEEEDDE
chain 2: B1 chain 1
modifications: Peptide with targeting and/or antimicrobial activity

How the values were obtained:
microorganisms [1] = experiment: Morphology, biofilm and growth disruption by peptides (Table 5); type: cell-based; set-up: key: A: Peptide aggregates; B: Less hyphal formation; Clumps; Diffuse clumps and small polyps; F: Diffuse growth; H: Thin; I: Growth inhibition; Microcolony formation; Rippled; Small polyps; Thick; W: Halo formation on top, microlonies on bottom
Text: In certain embodiments peptides that induce alterations in phenotype or other biological activities can also be used as antimicrobial effector moieties.

microorganisms [2] = experiment: Peptide activities: binding, antimicrobial, growth or phenotype altering (Table 8)
Text: In certain embodiments, peptides described herein can have multiple activities. Thus for example, a peptide can have both binding/targeting activity and antimicrobial activity. Such peptides can be used, e.g., in a chimeric construct, for any or all of these properties. Thus, for example, a peptide designated “B” in Table 8 can be used as a targeting peptide. If it is also designated G or M it can also be used for antimicrobial activity.

bacteria = experiment: Binding of targeting peptides to microorganisms (Table 3); settings: preferably 1x PBS
[3] = peptide binding in aqueous buffers that varied depending on peptide solubility

Molecule	Organism, effect (microorganisms [1]; MRSA)	Activities (microorganisms [2])	Organism, effect (morphology, biofilm and growth disruption) (microorganisms [1]; S. pneumoniae)	Organism, effect (morphology, biofilm and growth disruption) (microorganisms [1]; MRSA)	Organism, effect (morphology, biofilm and growth disruption) (microorganisms [1]; S. epidermidis)	Organism, effect (microorganisms [1]; S. epidermidis)	further results
PF-362 (NIERILKEKVWMIRCVE; Peptide with targeting and/or antimicrobial activity)	MRSA (C)	G B	–	–	–	–	Organism, effect (microorganisms [1]; E. coli): E. coli (C); Target(s) (bacteria; microorganism bound by the targeting peptide, binding in aqueous buffers chosen by peptide solubility): S. epidermidis; also recorded: E. coli; also recorded: P. aeruginosa; also recorded: C. albicans; also recorded: E. faecalis; also recorded: C. jejuni
PF-466 (VRKSDQ; Peptide with targeting and/or antimicrobial activity)	–	G B	S. pneumoniae (H)	–	–	–	Target(s) (microorganisms bound by the targeting peptide) (bacteria; [3]): MRSA and C. jeikeium and C. jejuni
PF-C072 (KKMFSLIRKVNWIFFILFIVLDLTNVFPLIRTILFAILSRQ; Peptide with targeting and/or antimicrobial activity)	–	G B	–	–	–	–	Organism, effect (morphology, biofilm and growth disruption) (microorganisms [1]; F. nucleatum): F. nucleatum (T); Organism, effect (morphology, biofilm and growth disruption) (microorganisms [1]; P. gingivalis): P. gingivalis (T); Organism, effect (morphology, biofilm and growth disruption) (microorganisms [1]; S. mutans): S. mutans (F); Target(s) (microorganism bound by the targeting peptide) (bacteria; [3]): A. naeslundii; also recorded: F. nucleatum; also recorded: P. gingivalis; also recorded: S. mutans; also recorded: T. denticola
PF-471 (MVGKIRGVTPRNDLLNANITGQLNLNYRLI; Peptide with targeting and/or antimicrobial activity)	–	G B	S. pneumoniae (D)	MRSA (D)	S. epidermidis (C)	–	Organism, effect (morphology, biofilm and growth disruption) (microorganisms [1]; C. jejuni): C. jejuni (D); Organism, effect (morphology, biofilm and growth disruption) (microorganisms [1]; E. coli): E. coli (C); Organism, effect (morphology, biofilm and growth disruption) (microorganisms [1]; E. faecalis): E. faecalis (C); Organism, effect (morphology, biofilm and growth disruption) (microorganisms [1]; P. aeruginosa): P. aeruginosa (A)
PF-482 (LVGYVRTSGTVRSYKIN; Peptide with targeting and/or antimicrobial activity)	–	G B	S. pneumoniae (S)	–	–	–	–
PF-356 (VSIKIGAIVIGMIGLMELLTE; Peptide with targeting and/or antimicrobial activity)	MRSA (C)	G B	–	–	–	S. epidermidis (S)	Organism, effect (microorganisms [1]; C. jejuni): C. jejuni (D); Organism, effect (microorganisms [1]; E. faecalis): E. faecalis (R); Organism, effect (microorganisms [1]; P. aeruginosa): P. aeruginosa (A); Organism, effect (microorganisms [1]; S. pneumoniae): S. pneumoniae (R)
PF-057 (TMIVISIPRFEEYMKARHKKWM; Peptide with targeting and/or antimicrobial activity)	MRSA (M)	G B	–	–	–	S. epidermidis (D)	Organism, effect (microorganisms [1]; C. albicans): C. albicans (A); Organism, effect (microorganisms [1]; C. jeikeium): C. jeikeium (A); Organism, effect (microorganisms [1]; C. jejuni): C. jejuni (D); Organism, effect (microorganisms [1]; E. coli): E. coli (M); Organism, effect (microorganisms [1]; E. faecalis): E. faecalis (A); Organism, effect (microorganisms [1]; M. luteus): M. luteus (C); Organism, effect (microorganisms [1]; S. pneumoniae): S. pneumoniae (R)
PF-556 (SLQIRMNTLTAAKASIEAA; Peptide with targeting and/or antimicrobial activity)	–	G B	S. pneumoniae (D)	MRSA (M)	S. epidermidis (A)	–	Organism, effect (morphology, biofilm and growth disruption) (microorganisms [1]; B. subtilis): B. subtilis (C); Organism, effect (morphology, biofilm and growth disruption) (microorganisms [1]; C. jeikeium): C. jeikeium (D); Organism, effect (morphology, biofilm and growth disruption) (microorganisms [1]; C. jejuni): C. jejuni (R); Organism, effect (morphology, biofilm and growth disruption) (microorganisms [1]; E. faecalis): E. faecalis (A); Organism, effect (morphology, biofilm and growth disruption) (microorganisms [1]; M. luteus): M. luteus (A)
PF-443 (KLLYFFNYFENLQQVHLLVQL; Peptide with targeting and/or antimicrobial activity)	–	G B	S. pneumoniae (C)	MRSA (C)	–	–	Organism, effect (morphology, biofilm and growth disruption) (microorganisms [1]; E. coli): E. coli (R)
PF-562 (TPEQWLERSTVVVTGLLNRK; Peptide with targeting and/or antimicrobial activity)	–	G B	S. pneumoniae (D)	MRSA (M)	S. epidermidis (A)	–	Organism, effect (morphology, biofilm and growth disruption) (microorganisms [1]; C. jejuni): C. jejuni (R); Organism, effect (morphology, biofilm and growth disruption) (microorganisms [1]; M. luteus): M. luteus (R)
AL C SVIKAIEL GIINVHL Q [PF-366]	MRSA (D)	G B	–	–	–	S. epidermidis (R)	Organism, effect (microorganisms [1]; C. jejuni): C. jejuni (D); Organism, effect (microorganisms [1]; E. coli): E. coli (C); Organism, effect (microorganisms [1]; E. faecalis): E. faecalis (C); Organism, effect (microorganisms [1]; P. aeruginosa): P. aeruginosa (A); Organism, effect (microorganisms [1]; S. pneumoniae): S. pneumoniae (C)
PF-577 (PFETRESFRVPVIGILGGWDYFMHP; Peptide with targeting and/or antimicrobial activity)	–	G B	S. pneumoniae (R)	MRSA (M)	S. epidermidis (A)	–	Organism, effect (morphology, biofilm and growth disruption) (microorganisms [1]; C. jejuni): C. jejuni (R); Organism, effect (morphology, biofilm and growth disruption) (microorganisms [1]; E. coli): E. coli (A); Organism, effect (morphology, biofilm and growth disruption) (microorganisms [1]; E. faecalis): E. faecalis (A); Organism, effect (morphology, biofilm and growth disruption) (microorganisms [1]; P. aeruginosa): P. aeruginosa (A)
PF-543 (NILFGIIGFVVAMTAAVIVTAISIAK; Peptide with targeting and/or antimicrobial activity)	–	G B	S. pneumoniae (D)	MRSA (D)	S. epidermidis (D)	–	Organism, effect (morphology, biofilm and growth disruption) (microorganisms [1]; E. coli): E. coli (C); Organism, effect (morphology, biofilm and growth disruption) (microorganisms [1]; M. luteus): M. luteus (C); Organism, effect (morphology, biofilm and growth disruption) (microorganisms [1]; S. mutans): S. mutans (S)
PF-012 (WRGPNTEAGGKSANNIVQVGGAPT; Peptide with targeting and/or antimicrobial activity)	MRSA (R)	G B	–	–	–	S. epidermidis (S)	Organism, effect (microorganisms [1]; C. jeikeium): C. jeikeium (A); Organism, effect (microorganisms [1]; M. luteus): M. luteus (C)
PF-379 (VFVVLFIIYLASKLLTKLFPIKK; Peptide with targeting and/or antimicrobial activity)	MRSA (C)	G B	–	–	–	S. epidermidis (C)	Organism, effect (microorganisms [1]; E. coli): E. coli (C); Organism, effect (microorganisms [1]; E. faecalis): E. faecalis (C)
PF-376 (MTVFEALMLAIAFATLIVKISNKNDKK; Peptide with targeting and/or antimicrobial activity)	MRSA (C)	G B	–	–	–	S. epidermidis (C)	Organism, effect (microorganisms [1]; E. coli): E. coli (C); Organism, effect (microorganisms [1]; E. faecalis): E. faecalis (C)
PF-063 (IAAIIVLVLFQKGLLQIFNWILIQLQ; Peptide with targeting and/or antimicrobial activity)	MRSA (M)	G B	–	–	–	S. epidermidis (R)	Organism, effect (microorganisms [1]; B. subtilis): B. subtilis (C); Organism, effect (microorganisms [1]; C. jeikeium): C. jeikeium (D); Organism, effect (microorganisms [1]; C. jejuni): C. jejuni (D); Organism, effect (microorganisms [1]; M. luteus): M. luteus (R); Organism, effect (microorganisms [1]; P. aeruginosa): P. aeruginosa (A); Organism, effect (microorganisms [1]; S. pneumoniae): S. pneumoniae (D)
PF-439 (RVLVLKKFHGIMDGNRNVAVFFVGQ; Peptide with targeting and/or antimicrobial activity)	–	G B	S. pneumoniae (R)	MRSA (M)	S. epidermidis (C)	–	Organism, effect (morphology, biofilm and growth disruption) (microorganisms [1]; E. coli): E. coli (R); Organism, effect (morphology, biofilm and growth disruption) (microorganisms [1]; E. faecalis): E. faecalis (C)
PF-548 (ARPIADLIHFNSTTVTASGDVYYGPG; Peptide with targeting and/or antimicrobial activity)	–	G B	S. pneumoniae (D)	MRSA (M)	S. epidermidis (M)	–	Organism, effect (morphology, biofilm and growth disruption) (microorganisms [1]; B. subtilis): B. subtilis (C); Organism, effect (morphology, biofilm and growth disruption) (microorganisms [1]; C. jeikeium): C. jeikeium (R); Organism, effect (morphology, biofilm and growth disruption) (microorganisms [1]; C. jejuni): C. jejuni (D); Organism, effect (morphology, biofilm and growth disruption) (microorganisms [1]; M. luteus): M. luteus (A)
PF-460 (MEHVLPFQNTPPNIVIIYKDFTHLKSITFS; Peptide with targeting and/or antimicrobial activity)	–	G B	S. pneumoniae (R)	MRSA (C)	S. epidermidis (C)	–	Organism, effect (morphology, biofilm and growth disruption) (microorganisms [1]; E. coli): E. coli (H); Organism, effect (morphology, biofilm and growth disruption) (microorganisms [1]; E. faecalis): E. faecalis (C)
B1	–	G B	S. pneumoniae (H)	–	–	–	–
